PMC5290327, “SC83288 is a clinical development candidate for the treatment of severe malaria” (Nature Communications, 2017)

Experiments:
Experiment in all cases: KINOMEscan
Assay type in all cases: binding
Conditions in all cases: read-out: Remaining enzyme activity
[1] = molecular target: T1, MARK4 (Homo sapiens, UniProt Q96L34)
T1 construct: purchased Ambit (DiscoverX) KINOMEscan; Cerep
Description: (§1) The KINOMEscan was carried out by Ambit (San Diego, USA) according to a previously established protocol. The experiment was based on a competition binding assay that quantitatively measures the ability of a compound to compete with an immobilized, active-site directed ligand. The assay is performed by combining three components: DNA-tagged kinase; immobilized ligand; and a test compound. The ability of the test compound to compete with the immobilized ligand is measured via quantitative PCR of the DNA tag.
(§2) For most assays, kinase-tagged T7 phage strains were grown in parallel in 24-well blocks in an Escherichia coli host derived from the BL21 strain. E. coli were grown to log-phase and infected with T7 phage from a frozen stock and incubated with shaking at 32 °C until lysis (90–150 min). The lysates were centrifuged (6,000g) and filtered (0.2 μm) to remove cell debris. The remaining kinases were produced in HEK-293 cells (Sigma Aldrich, catalogue number: 85120602) and subsequently tagged with DNA for quantitative PCR detection. […] The liganded beads were blocked with excess biotin and washed with blocking buffer (SeaBlock (Pierce), 1% bovine serum albumin, 0.05% Tween 20 and 1 mM dithiothreitol) to remove unbound ligand and to reduce non-specific phage binding. […] SC81458 was prepared as 40x stock in 100% DMSO and directly diluted into the assay to a final concentration of 10 μM. All reactions were performed in polypropylene 384-well plates in a final volume of 0.04 ml. […] The kinase concentration in the eluates was measured by quantitative PCR.

[2] = molecular target: T2, SRPK3 (Homo sapiens, UniProt Q9UPE1)
T2 construct: purchased Ambit (DiscoverX) KINOMEscan; Cerep
T2 sequence (Q9UPE1 whole entry): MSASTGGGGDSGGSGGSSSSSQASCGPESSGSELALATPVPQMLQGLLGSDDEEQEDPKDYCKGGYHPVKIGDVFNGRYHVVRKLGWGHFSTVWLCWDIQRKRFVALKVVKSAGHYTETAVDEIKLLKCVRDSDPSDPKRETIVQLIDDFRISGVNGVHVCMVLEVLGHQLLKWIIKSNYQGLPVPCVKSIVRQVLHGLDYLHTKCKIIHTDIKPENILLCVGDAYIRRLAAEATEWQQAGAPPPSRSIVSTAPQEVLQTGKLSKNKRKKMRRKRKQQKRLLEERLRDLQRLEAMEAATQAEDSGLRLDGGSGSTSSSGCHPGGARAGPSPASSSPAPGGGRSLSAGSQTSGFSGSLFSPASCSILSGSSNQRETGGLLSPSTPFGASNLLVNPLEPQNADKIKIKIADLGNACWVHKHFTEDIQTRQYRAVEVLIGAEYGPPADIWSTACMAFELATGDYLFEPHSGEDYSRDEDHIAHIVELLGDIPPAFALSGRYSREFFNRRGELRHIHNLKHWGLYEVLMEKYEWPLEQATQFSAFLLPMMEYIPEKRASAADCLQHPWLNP
Description: as §1, §2

[3] = molecular target: T3, ZAP70 (Homo sapiens, UniProt P43403)
T3 construct: purchased Ambit (DiscoverX) KINOMEscan; Cerep
Description: as §1, §2

[4] = molecular target: T4, HIPK4 (Homo sapiens, UniProt Q8NE63)
T4 construct: purchased Ambit (DiscoverX) KINOMEscan; Cerep
Description: as §1, §2

[5] = molecular target: T5, MST1 (Homo sapiens, UniProt Q13043)
T5 construct: purchased Ambit (DiscoverX) KINOMEscan; Cerep
Description: as §1, §2

[6] = molecular target: T6, ERK5 (Homo sapiens, UniProt Q13164)
T6 construct: purchased Ambit (DiscoverX) KINOMEscan; Cerep
Description: as §1, §2

[7] = molecular target: T7, MEK3 (Homo sapiens, UniProt P46734)
T7 construct: purchased Ambit (DiscoverX) KINOMEscan; Cerep
Description: as §1, §2

[8] = molecular target: T8, PRKR (Homo sapiens, UniProt P19525)
T8 construct: purchased Ambit (DiscoverX) KINOMEscan; Cerep
Description: as §1, §2

[9] = molecular target: T9, EPHB1 (Homo sapiens, UniProt P54762)
T9 construct: purchased Ambit (DiscoverX) KINOMEscan; Cerep
Description: as §1, §2

[10] = molecular target: T10, CAMKK2 (Homo sapiens, UniProt Q96RR4)
T10 construct: purchased Ambit (DiscoverX) KINOMEscan; Cerep
Description: as §1, §2

[11] = molecular target: T11, ULK1 (Homo sapiens, UniProt O75385)
T11 construct: purchased Ambit (DiscoverX) KINOMEscan; Cerep
T11 sequence (O75385 whole entry): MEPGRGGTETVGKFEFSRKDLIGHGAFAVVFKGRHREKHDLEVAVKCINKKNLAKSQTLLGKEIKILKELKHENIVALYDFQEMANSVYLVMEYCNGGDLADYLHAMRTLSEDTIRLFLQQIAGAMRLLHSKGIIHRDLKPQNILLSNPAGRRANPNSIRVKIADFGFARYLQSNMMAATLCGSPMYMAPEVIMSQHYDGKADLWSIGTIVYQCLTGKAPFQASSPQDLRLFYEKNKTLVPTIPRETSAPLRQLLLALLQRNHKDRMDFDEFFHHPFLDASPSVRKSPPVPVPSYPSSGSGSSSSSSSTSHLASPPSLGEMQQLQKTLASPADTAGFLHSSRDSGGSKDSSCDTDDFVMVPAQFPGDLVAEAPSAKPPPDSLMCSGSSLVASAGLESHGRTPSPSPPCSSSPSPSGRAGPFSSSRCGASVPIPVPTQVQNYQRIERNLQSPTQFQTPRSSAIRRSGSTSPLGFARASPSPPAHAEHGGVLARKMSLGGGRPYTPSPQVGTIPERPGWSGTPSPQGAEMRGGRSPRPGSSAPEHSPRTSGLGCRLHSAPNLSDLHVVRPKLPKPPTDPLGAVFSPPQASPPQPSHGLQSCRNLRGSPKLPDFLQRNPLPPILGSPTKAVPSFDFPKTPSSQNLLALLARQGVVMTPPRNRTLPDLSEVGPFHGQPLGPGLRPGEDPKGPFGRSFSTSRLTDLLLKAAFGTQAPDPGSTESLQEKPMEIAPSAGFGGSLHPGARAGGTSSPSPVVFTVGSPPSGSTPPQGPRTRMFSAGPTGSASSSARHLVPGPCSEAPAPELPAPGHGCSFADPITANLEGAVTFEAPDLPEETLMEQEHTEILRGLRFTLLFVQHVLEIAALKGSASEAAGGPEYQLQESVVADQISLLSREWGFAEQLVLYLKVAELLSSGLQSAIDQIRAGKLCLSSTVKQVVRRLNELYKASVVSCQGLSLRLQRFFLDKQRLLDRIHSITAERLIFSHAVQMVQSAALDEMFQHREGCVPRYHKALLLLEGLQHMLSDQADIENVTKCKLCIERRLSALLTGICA
Description: as §1, §2

[12] = molecular target: T12, ERK1 (Homo sapiens, UniProt P27361)
T12 construct: purchased Ambit (DiscoverX) KINOMEscan; Cerep
Description: as §1, §2

[13] = molecular target: T13, SgK110 (Homo sapiens, UniProt P0C264)
T13 construct: purchased Ambit (DiscoverX) KINOMEscan; Cerep
T13 sequence (P0C264 whole entry): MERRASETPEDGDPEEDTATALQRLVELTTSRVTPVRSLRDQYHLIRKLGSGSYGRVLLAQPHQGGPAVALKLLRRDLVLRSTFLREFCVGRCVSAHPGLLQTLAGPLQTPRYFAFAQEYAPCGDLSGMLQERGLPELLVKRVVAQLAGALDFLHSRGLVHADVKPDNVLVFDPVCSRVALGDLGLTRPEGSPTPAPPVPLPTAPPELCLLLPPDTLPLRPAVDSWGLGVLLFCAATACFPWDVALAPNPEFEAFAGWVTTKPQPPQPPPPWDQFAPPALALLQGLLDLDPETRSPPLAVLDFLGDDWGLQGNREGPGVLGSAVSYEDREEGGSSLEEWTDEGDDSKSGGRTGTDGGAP
Description: as §1, §2

[14] = molecular target: T14, ASK2 (Homo sapiens, UniProt O95382)
T14 construct: purchased Ambit (DiscoverX) KINOMEscan; Cerep
T14 sequence (O95382 whole entry): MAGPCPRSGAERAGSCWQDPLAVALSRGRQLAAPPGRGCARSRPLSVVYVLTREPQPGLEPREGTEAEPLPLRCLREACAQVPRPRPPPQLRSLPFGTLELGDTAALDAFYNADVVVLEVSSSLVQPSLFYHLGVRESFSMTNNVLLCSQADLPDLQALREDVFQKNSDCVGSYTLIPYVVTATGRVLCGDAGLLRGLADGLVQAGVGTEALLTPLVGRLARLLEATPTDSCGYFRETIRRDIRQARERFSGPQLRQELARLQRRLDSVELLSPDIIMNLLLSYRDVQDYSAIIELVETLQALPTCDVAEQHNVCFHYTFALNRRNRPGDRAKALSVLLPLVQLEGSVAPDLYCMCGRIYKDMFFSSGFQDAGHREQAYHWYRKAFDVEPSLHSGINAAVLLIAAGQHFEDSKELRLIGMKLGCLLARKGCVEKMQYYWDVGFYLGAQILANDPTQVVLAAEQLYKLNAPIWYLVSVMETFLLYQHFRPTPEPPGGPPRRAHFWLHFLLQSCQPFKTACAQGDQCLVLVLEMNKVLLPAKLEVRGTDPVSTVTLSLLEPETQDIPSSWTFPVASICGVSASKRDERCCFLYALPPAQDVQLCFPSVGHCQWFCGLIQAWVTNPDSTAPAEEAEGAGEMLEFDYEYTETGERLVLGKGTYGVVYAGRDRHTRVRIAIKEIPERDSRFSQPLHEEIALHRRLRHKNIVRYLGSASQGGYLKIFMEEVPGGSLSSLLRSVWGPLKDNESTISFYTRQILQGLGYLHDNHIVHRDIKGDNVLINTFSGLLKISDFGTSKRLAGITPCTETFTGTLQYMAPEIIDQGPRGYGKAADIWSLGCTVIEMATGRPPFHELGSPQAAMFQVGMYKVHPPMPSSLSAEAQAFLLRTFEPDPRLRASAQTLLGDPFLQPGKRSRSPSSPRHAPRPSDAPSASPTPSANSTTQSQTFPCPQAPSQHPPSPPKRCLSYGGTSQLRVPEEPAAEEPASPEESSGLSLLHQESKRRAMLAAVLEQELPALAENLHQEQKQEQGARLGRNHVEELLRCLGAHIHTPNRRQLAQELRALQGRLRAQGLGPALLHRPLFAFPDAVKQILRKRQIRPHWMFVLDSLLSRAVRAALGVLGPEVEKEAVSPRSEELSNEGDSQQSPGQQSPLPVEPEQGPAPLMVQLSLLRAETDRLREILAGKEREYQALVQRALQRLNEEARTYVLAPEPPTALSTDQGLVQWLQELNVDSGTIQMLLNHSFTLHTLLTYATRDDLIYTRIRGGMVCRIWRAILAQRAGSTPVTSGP
Description: as §1, §2

[15] = molecular target: T15, ACVR2b (Homo sapiens, UniProt Q13705)
T15 construct: purchased Ambit (DiscoverX) KINOMEscan; Cerep
T15 sequence (Q13705 19-512): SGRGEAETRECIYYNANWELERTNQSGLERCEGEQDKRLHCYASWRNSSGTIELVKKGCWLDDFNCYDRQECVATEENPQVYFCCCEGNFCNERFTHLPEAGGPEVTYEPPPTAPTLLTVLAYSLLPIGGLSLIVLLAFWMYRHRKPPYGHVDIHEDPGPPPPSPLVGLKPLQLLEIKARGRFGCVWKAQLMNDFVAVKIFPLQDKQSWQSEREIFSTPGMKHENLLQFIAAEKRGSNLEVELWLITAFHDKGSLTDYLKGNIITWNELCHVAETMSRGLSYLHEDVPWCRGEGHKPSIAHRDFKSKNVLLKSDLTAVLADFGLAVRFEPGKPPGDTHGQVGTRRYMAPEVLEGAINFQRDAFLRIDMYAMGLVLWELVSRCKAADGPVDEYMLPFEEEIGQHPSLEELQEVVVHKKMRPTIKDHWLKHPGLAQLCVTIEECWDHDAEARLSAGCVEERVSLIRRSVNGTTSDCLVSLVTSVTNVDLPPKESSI
Description: as §1, §2

[16] = molecular target: T16, ABL1(H396P) (Homo sapiens, UniProt P00519, H396P)
T16 construct: purchased Ambit (DiscoverX) KINOMEscan; Cerep
Description: as §1, §2

[17] = molecular target: T17, SRC (Homo sapiens, UniProt P12931)
T17 construct: purchased Ambit (DiscoverX) KINOMEscan; Cerep
Description: as §1, §2

[18] = molecular target: T18, EPHA4 (Homo sapiens, UniProt P54764)
T18 construct: purchased Ambit (DiscoverX) KINOMEscan; Cerep
Description: as §1, §2

[19] = molecular target: T19, SIK2 (Homo sapiens, UniProt Q9H0K1)
T19 construct: purchased Ambit (DiscoverX) KINOMEscan; Cerep
Description: as §1, §2

[20] = molecular target: T20, AURKA (Homo sapiens, UniProt O14965)
T20 construct: purchased Ambit (DiscoverX) KINOMEscan; Cerep
T20 sequence (O14965 whole entry): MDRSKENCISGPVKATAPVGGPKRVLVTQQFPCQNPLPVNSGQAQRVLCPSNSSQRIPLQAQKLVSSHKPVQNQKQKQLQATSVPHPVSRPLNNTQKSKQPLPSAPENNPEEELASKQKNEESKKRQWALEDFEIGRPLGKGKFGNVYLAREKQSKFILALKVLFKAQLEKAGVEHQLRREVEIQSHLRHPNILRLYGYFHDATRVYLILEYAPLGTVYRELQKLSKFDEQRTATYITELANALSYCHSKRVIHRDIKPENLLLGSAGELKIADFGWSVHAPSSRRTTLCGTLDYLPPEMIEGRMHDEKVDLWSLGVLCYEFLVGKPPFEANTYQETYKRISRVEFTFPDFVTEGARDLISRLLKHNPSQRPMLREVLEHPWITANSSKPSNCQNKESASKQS
Description: as §1, §2

[21] = molecular target: T21, PAK3 (Homo sapiens, UniProt O75914)
T21 construct: purchased Ambit (DiscoverX) KINOMEscan; Cerep
Description: as §1, §2

[22] = molecular target: T22, SgK085 (Homo sapiens, UniProt Q86YV6)
T22 construct: purchased Ambit (DiscoverX) KINOMEscan; Cerep
Description: as §1, §2

[23] = molecular target: T23, PAK2 (Homo sapiens, UniProt Q13177)
T23 construct: purchased Ambit (DiscoverX) KINOMEscan; Cerep
Description: as §1, §2

[24] = molecular target: T24, MAP4K2 (Homo sapiens, UniProt Q12851)
T24 construct: purchased Ambit (DiscoverX) KINOMEscan; Cerep
Description: as §1, §2

[25] = molecular target: T25, TIE2 (Homo sapiens, UniProt Q02763)
T25 construct: purchased Ambit (DiscoverX) KINOMEscan; Cerep
Description: as §1, §2

[26] = molecular target: T26, ABL1(Y253F) (Homo sapiens, UniProt P00519, Y253F)
T26 construct: purchased Ambit (DiscoverX) KINOMEscan; Cerep
Description: as §1, §2

[27] = molecular target: T27, AMPK-alpha1 (Homo sapiens, UniProt Q13131)
T27 construct: purchased Ambit (DiscoverX) KINOMEscan; Cerep
Description: as §1, §2

[28] = molecular target: T28, CAMK2b (Homo sapiens, UniProt Q13554)
T28 construct: purchased Ambit (DiscoverX) KINOMEscan; Cerep
Description: as §1, §2

[29] = molecular target: T29, DMPK (Homo sapiens, UniProt Q09013)
T29 construct: purchased Ambit (DiscoverX) KINOMEscan; Cerep
Description: as §1, §2

[30] = molecular target: T30, MST4 (Homo sapiens, UniProt Q9P289)
T30 construct: purchased Ambit (DiscoverX) KINOMEscan; Cerep
T30 sequence (Q9P289 whole entry): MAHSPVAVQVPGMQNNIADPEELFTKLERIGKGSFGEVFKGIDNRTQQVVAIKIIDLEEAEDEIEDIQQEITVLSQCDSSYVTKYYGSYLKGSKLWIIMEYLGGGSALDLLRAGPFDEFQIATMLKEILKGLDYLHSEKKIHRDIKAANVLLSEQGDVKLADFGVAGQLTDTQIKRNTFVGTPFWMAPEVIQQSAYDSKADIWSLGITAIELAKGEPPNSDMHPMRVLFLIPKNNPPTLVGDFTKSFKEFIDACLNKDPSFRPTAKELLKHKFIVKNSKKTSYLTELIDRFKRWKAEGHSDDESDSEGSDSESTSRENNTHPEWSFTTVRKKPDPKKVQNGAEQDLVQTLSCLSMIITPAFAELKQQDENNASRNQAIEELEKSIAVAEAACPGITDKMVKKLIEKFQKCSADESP
Description: as §1, §2

[31] = molecular target: T31, FRK (Homo sapiens, UniProt P42685)
T31 construct: purchased Ambit (DiscoverX) KINOMEscan; Cerep
Description: as §1, §2

[32] = molecular target: T32, DAPK3 (Homo sapiens, UniProt O43293)
T32 construct: purchased Ambit (DiscoverX) KINOMEscan; Cerep
Description: as §1, §2

[33] = molecular target: T33, CSNK2a2 (Homo sapiens, UniProt P19784)
T33 construct: purchased Ambit (DiscoverX) KINOMEscan; Cerep
T33 sequence (P19784 whole entry): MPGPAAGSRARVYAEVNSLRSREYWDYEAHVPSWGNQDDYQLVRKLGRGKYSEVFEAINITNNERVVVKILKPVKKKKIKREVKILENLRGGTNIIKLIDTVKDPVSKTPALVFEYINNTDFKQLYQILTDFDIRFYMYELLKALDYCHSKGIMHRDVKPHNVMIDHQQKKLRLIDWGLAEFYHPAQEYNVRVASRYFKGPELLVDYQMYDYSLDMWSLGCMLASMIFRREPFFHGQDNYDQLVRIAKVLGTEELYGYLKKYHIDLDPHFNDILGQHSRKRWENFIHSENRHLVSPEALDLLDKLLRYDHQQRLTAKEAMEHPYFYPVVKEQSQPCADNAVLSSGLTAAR
Description: as §1, §2

[34] = molecular target: T34, PLK4 (Homo sapiens, UniProt O00444)
T34 construct: purchased Ambit (DiscoverX) KINOMEscan; Cerep
Description: as §1, §2

[35] = molecular target: T35, PKAC-apha (Homo sapiens, UniProt P17612)
T35 construct: purchased Ambit (DiscoverX) KINOMEscan; Cerep
Description: as §1, §2

CCCCN1CCN(C(=N)c2cccc(NC(=O)Nc3ccc(S(=O)(=O)NCc4ccc(S(N)(=O)=O)cc4)cc3)c2)CC1 [SC81458, 4-(3-(3-((4-butylpiperazin-1-yl)(imino)methyl)phenyl)ureido)-N-(4-sulfamoylbenzyl) benzenesulfonamide]
remaining binding at 10 µM [1]: 100%
remaining binding at 10 µM [2]: 83%
remaining binding at 10 µM [3]: 89%
remaining binding at 10 µM [4]: 100%
remaining binding at 10 µM [5]: 100%
remaining binding at 10 µM [6]: 100%
remaining binding at 10 µM [7]: 100%
remaining binding at 10 µM [8]: 91%
remaining binding at 10 µM [9]: 84%
remaining binding at 10 µM [10]: 100%
remaining binding at 10 µM [11]: 100%
remaining binding at 10 µM [12]: 99%
remaining binding at 10 µM [13]: 100%
remaining binding at 10 µM [14]: 100%
remaining binding at 10 µM [15]: 93%
remaining binding at 10 µM [16]: 100%
remaining binding at 10 µM [17]: 81%
remaining binding at 10 µM [18]: 98%
remaining binding at 10 µM [19]: 100%
remaining binding at 10 µM [20]: 68%
remaining binding at 10 µM [21]: 93%
remaining binding at 10 µM [22]: 100%
remaining binding at 10 µM [23]: 100%
remaining binding at 10 µM [24]: 100%
remaining binding at 10 µM [25]: 100%
remaining binding at 10 µM [26]: 92%
remaining binding at 10 µM [27]: 100%
remaining binding at 10 µM [28]: 100%
remaining binding at 10 µM [29]: 76%
remaining binding at 10 µM [30]: 100%
remaining binding at 10 µM [31]: 100%
remaining binding at 10 µM [32]: 100%
remaining binding at 10 µM [33]: 78%
remaining binding at 10 µM [34]: 93%
remaining binding at 10 µM [35]: 75%
